Laboratory results: PubChem BioAssay (NCI)
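The compound was tested at five concentrations on cells cultured in 96-well plates, with a 48-hour exposure period. TGI: total growth inhibition.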

Tests used:
Test in all cases: DTP human tumour cell line panel, 48 h
SK-MEL-28 melanoma = tested on: SK-MEL-28 melanoma
NCI-H460 lung = tested on: NCI-H460 lung
SK-MEL-2 melanoma = tested on: SK-MEL-2 melanoma
OVCAR-5 ovarian = tested on: OVCAR-5 ovarian
MDA-MB-435 = tested on: MDA-MB-435
HOP-92 NSCLC = tested on: HOP-92 NSCLC
RXF 393 renal = tested on: RXF 393 renal
NCI/ADR-RES ovarian = tested on: NCI/ADR-RES ovarian
NCI-H522 lung = tested on: NCI-H522 lung
ACHN renal = tested on: ACHN renal
SK-OV-3 ovarian = tested on: SK-OV-3 ovarian
HCT-116 colon = tested on: HCT-116 colon
U251 CNS = tested on: U251 CNS
SNB-75 CNS = tested on: SNB-75 CNS
SNB-19 CNS = tested on: SNB-19 CNS
TK-10 renal = tested on: TK-10 renal
SW-620 colon = tested on: SW-620 colon
MDA-N = tested on: MDA-N
BT-549 breast = tested on: BT-549 breast
786-0 renal = tested on: 786-0 renal
COLO 205 colon = tested on: COLO 205 colon
CCRF-CEM leukemia = tested on: CCRF-CEM leukemia
DU-145 prostate = tested on: DU-145 prostate
SF-539 CNS = tested on: SF-539 CNS
K-562 leukemia = tested on: K-562 leukemia
M14 melanoma = tested on: M14 melanoma
A498 renal = tested on: A498 renal
MCF7 breast = tested on: MCF7 breast
RPMI-8226 leukemia = tested on: RPMI-8226 leukemia
SK-MEL-5 melanoma = tested on: SK-MEL-5 melanoma
OVCAR-3 ovarian = tested on: OVCAR-3 ovarian
MDA-MB-231 breast = tested on: MDA-MB-231 breast
HL-60(TB) leukemia = tested on: HL-60(TB) leukemia
T-47D breast = tested on: T-47D breast
IGROV1 ovarian = tested on: IGROV1 ovarian
HS 578T breast = tested on: HS 578T breast
OVCAR-8 ovarian = tested on: OVCAR-8 ovarian
SN12C renal = tested on: SN12C renal
HOP-62 NSCLC = tested on: HOP-62 NSCLC
HT29 colon = tested on: HT29 colon
UACC-257 melanoma = tested on: UACC-257 melanoma
EKVX NSCLC = tested on: EKVX NSCLC
UO-31 renal = tested on: UO-31 renal
MALME-3M melanoma = tested on: MALME-3M melanoma
A549 NSCLC = tested on: A549 NSCLC
HCC-2998 colon = tested on: HCC-2998 colon
OVCAR-4 ovarian = tested on: OVCAR-4 ovarian
SF-268 CNS = tested on: SF-268 CNS
SF-295 CNS = tested on: SF-295 CNS
PC-3 prostate = tested on: PC-3 prostate
MOLT-4 leukemia = tested on: MOLT-4 leukemia
UACC-62 melanoma = tested on: UACC-62 melanoma
NCI-H23 lung = tested on: NCI-H23 lung
NCI-H226 lung = tested on: NCI-H226 lung
HCT-15 colon = tested on: HCT-15 colon
SR leukemia = tested on: SR leukemia
CAKI-1 renal = tested on: CAKI-1 renal
LOX IMVI melanoma = tested on: LOX IMVI melanoma
KM12 colon = tested on: KM12 colon

C=CC(Cl)(CBr)CCC(Br)C(C)(C)Cl (stereo unspecified)
TGI (SK-MEL-28 melanoma): 33.1 µM | TGI (NCI-H460 lung): 28 µM | TGI (SK-MEL-2 melanoma): 37.5 µM | TGI (OVCAR-5 ovarian): 31.1 µM | TGI (MDA-MB-435): 30.3 µM | TGI (HOP-92 NSCLC): 39.8 µM | TGI (RXF 393 renal): 31.2 µM | TGI (NCI/ADR-RES ovarian): 49.8 µM | TGI (NCI-H522 lung): 24.4 µM | TGI (ACHN renal): 38.2 µM | TGI (SK-OV-3 ovarian): > 100 µM | TGI (HCT-116 colon): 25.4 µM | TGI (U251 CNS): 27.4 µM | TGI (SNB-75 CNS): 68.8 µM | TGI (SNB-19 CNS): 32.8 µM | TGI (TK-10 renal): 38.6 µM | TGI (SW-620 colon): 26.2 µM | TGI (MDA-N): 32.4 µM | TGI (BT-549 breast): 38.6 µM | TGI (786-0 renal): 28.1 µM | TGI (COLO 205 colon): 29.5 µM | TGI (CCRF-CEM leukemia): 29 µM | TGI (DU-145 prostate): 42.8 µM | TGI (SF-539 CNS): 30.5 µM | TGI (K-562 leukemia): 72.4 µM | TGI (M14 melanoma): 29 µM | TGI (A498 renal): 27.2 µM | TGI (MCF7 breast): 20.1 µM | TGI (RPMI-8226 leukemia): 29.5 µM | TGI (SK-MEL-5 melanoma): 25.8 µM | TGI (OVCAR-3 ovarian): 33.2 µM | TGI (MDA-MB-231 breast): 27.6 µM | TGI (HL-60(TB) leukemia): 19.3 µM | TGI (T-47D breast): 39.6 µM | TGI (IGROV1 ovarian): 26.3 µM | TGI (HS 578T breast): > 100 µM | TGI (OVCAR-8 ovarian): 31.5 µM | TGI (SN12C renal): 48.4 µM | TGI (HOP-62 NSCLC): 30.6 µM | TGI (HT29 colon): 28.9 µM | TGI (UACC-257 melanoma): 27.5 µM | TGI (EKVX NSCLC): 42.4 µM | TGI (UO-31 renal): 29.3 µM | TGI (MALME-3M melanoma): 35.8 µM | TGI (A549 NSCLC): 89.3 µM | TGI (HCC-2998 colon): 28.8 µM | TGI (OVCAR-4 ovarian): 34.1 µM | TGI (SF-268 CNS): 48.4 µM | TGI (SF-295 CNS): 28.8 µM | TGI (PC-3 prostate): 35 µM | TGI (MOLT-4 leukemia): 21.1 µM | TGI (UACC-62 melanoma): 30.5 µM | TGI (NCI-H23 lung): 31.3 µM | TGI (NCI-H226 lung): > 100 µM | TGI (HCT-15 colon): 36.7 µM

CC(C)(C)OC(=O)N1C(c2cccnc2)=CC[C@H]2C3CC=C(c4cccnc4)[C@@]3(C)CC[C@@H]21 (stereo partly specified)
TGI (NCI-H460 lung): 14.1 µM | TGI (SK-MEL-2 melanoma): 8.39 µM | TGI (OVCAR-5 ovarian): 28.6 µM | TGI (MDA-MB-435): 5.7 µM | TGI (HOP-92 NSCLC): 8.34 µM | TGI (RXF 393 renal): 14.6 µM | TGI (SR leukemia): 22.2 µM | TGI (NCI/ADR-RES ovarian): 34.9 µM | TGI (NCI-H522 lung): 11.9 µM | TGI (ACHN renal): 11.3 µM | TGI (SK-OV-3 ovarian): 15 µM | TGI (CAKI-1 renal): 30.2 µM | TGI (HCT-116 colon): 17.5 µM | TGI (U251 CNS): 12 µM | TGI (SNB-75 CNS): 19.7 µM | TGI (SNB-19 CNS): 17.2 µM | TGI (TK-10 renal): 19.7 µM | TGI (SW-620 colon): 15.8 µM | TGI (MDA-N): 9.2 µM | TGI (BT-549 breast): 16.3 µM | TGI (786-0 renal): 16.4 µM | TGI (COLO 205 colon): 3.19 µM | TGI (CCRF-CEM leukemia): 25.8 µM | TGI (DU-145 prostate): 19.2 µM | TGI (SF-539 CNS): 14.8 µM | TGI (K-562 leukemia): 38.6 µM | TGI (M14 melanoma): 17.7 µM | TGI (A498 renal): 18.5 µM | TGI (MCF7 breast): 11.1 µM | TGI (RPMI-8226 leukemia): 5.05 µM | TGI (SK-MEL-5 melanoma): 4.18 µM | TGI (OVCAR-3 ovarian): 14.2 µM | TGI (HL-60(TB) leukemia): 14 µM | TGI (T-47D breast): 29.8 µM | TGI (IGROV1 ovarian): 16.4 µM | TGI (HS 578T breast): 24.7 µM | TGI (OVCAR-8 ovarian): 25 µM | TGI (SN12C renal): 13 µM | TGI (HOP-62 NSCLC): 16.3 µM | TGI (HT29 colon): 11.8 µM | TGI (UACC-257 melanoma): 10.6 µM | TGI (EKVX NSCLC): 10.3 µM | TGI (UO-31 renal): 17.3 µM | TGI (MALME-3M melanoma): 13.3 µM | TGI (A549 NSCLC): 12.2 µM | TGI (LOX IMVI melanoma): 8.41 µM | TGI (OVCAR-4 ovarian): 19.3 µM | TGI (SF-268 CNS): 11.5 µM | TGI (SF-295 CNS): 11.1 µM | TGI (PC-3 prostate): 19.3 µM | TGI (MOLT-4 leukemia): > 100 µM | TGI (KM12 colon): 28.8 µM | TGI (UACC-62 melanoma): 8.31 µM | TGI (NCI-H23 lung): 12.8 µM | TGI (NCI-H226 lung): 15.1 µM | TGI (HCT-15 colon): 13.8 µM
